From EP0996429B1, “SOLID STATE SOLUTIONS AND DISPERSIONS OF POORLY WATER SOLUBLE DRUGS” (MERCK PATENT GmbH, priority 1997, dated 1999)

How the values were obtained:
[1] = Intrinsic dissolution of ibuprofen and HydroSolve-Ibuprofen in pH 7.2 buffer (paddle, absorbance 221 nm); assay type: physicochemical; conditions: 700 ml pH 7.2 buffer, paddle 50 rpm
Description: b. Procedures: • 1.Melt Gelucire and Pluronic, and dissolve ibuprofen into the mixture. • 2.Add the above solution into Sorbitol Instant while stirring. • 3.Cool down and pass through #20 mesh screen. c. Dissolution Test Using the Dissolution Test as follows: • 1.Measure 3.3 mg and 17.2 mg of ibuprofen (20 micron) and HydroSolve - Ibuprofen, respectively. • 2.Measure the dissolution profiles using 700 ml of pH 7.2 buffer and paddle at 50 rpm. • 3.Measure the absorbance at 221 nm.

[2] = Intrinsic dissolution of phenytoin and HydroSolve-phenytoin in DI water (paddle method, absorbance 220 nm); assay type: physicochemical; conditions: 900 ml D1 water, Paddle Method 50 rpm
Description: b. Procedures: • 1. Melt Gelucire and Pluronic together. • 2. Dissolve the phenytoin into above solution. • 3. Congeal this suspension and pass through #20 mesh. • 4. Measure about 32 and 110 mg of phenytoin and HydroSolve - phenytoin, respectively. • 5. Measure the dissolution profiles using 900 ml of D1 water and Paddle Method at 50 rpm. • 6. Using D1 water as blank, measure the absorbance at 220 nm of each sample which is filtered through 0.45 micron filters. • 7. Calculate the percent released by standard curve: Absorbance = 0.4072 x Concentration (mg/100ml) + 0.0227 [formula] c.

Compound	Dissolution profile (Results) ([1]; Time 10 min)	Dissolution profile (Results) ([1]; Time 20 min)	Dissolution profile (Results) ([1]; Time 30 min)	% Dissolved (%) ([2]; Time 0.5 h)	% Dissolved (%) ([2]; Time 1 h)	% Dissolved (%) ([2]; Time 2 h)	% Dissolved (%) ([2]; Time 3 h)
CC(C)Cc1ccc(C(C)C(=O)O)cc1 (stereo not shown) [Ibuprofen]	75.93	81.14	81.14	–	–	–	–
O=C1NC(=O)C(c2ccccc2)(c2ccccc2)N1 [Phenytoin]	–	–	–	3.03	5.92	14.42	20.58
